According to patent publication US20250195496A1, “AVPR1A BLOCKADE TO REDUCE SOCIAL ISOLATION-INDUCED ANXIETY IN FEMALES” (THE TRUSTEES OF COLUMBIA UNIVERSITY IN THE CITY OF NEW YORK, priority 2022, published 2025):
“Also recorded” adds a separate entry of the source. Bridge positions count the residues as written; N and C are the ends. Ends that are not written are not given here.

Experiments:
WT mice = assay: Marble burying assay after i.p. antagonist injection; type: in vivo, mouse; details: 2 mg/kg
Method: Chronic social Isolation: Mice were singly housed at 5 weeks of age for 7 weeks in standard cages. Control groups included mice isolated at 8 weeks of age for 2 weeks, or at 8 weeks of age for 7 weeks. An additional control group included mice socially isolated at 8 weeks of age for 7 weeks and regrouped at 15 weeks for 3 weeks.
All behavioral assays were performed after lights out (7 pm).
Marble burying: Standard cages were filled with fresh bedding to a depth of 2.5 in and 15 marbles were evenly spaced across the bedding. […] At the end of the assay, the number of marbles buried was estimated visually. A marble was considered buried if at least ¾ of its surface was covered by the bedding.
Peripheral antagonist injections: Injections of SRX246 (AVPR1A antagonist, 2 mg/kg, i.p.), SR49059 (AVPR1A antagonist, 2 mg/kg, i.p.), SSR149415 (AVPR1B antagonist, 2 mg/kg, i.p.), d(CH2)5Tyr(Me)-[Orn8]-vasotocin (Oxytocin receptor antagonist, 2 mg/kg, i.p.), or 1% DMSO (Sigma Aldrich, i.p.) were performed in WT adults.

AVPR1A^CeA neurons = assay: Chemogenetic activation of AVPR1A^CeA neurons by CNO (cFos smFISH); type: in vivo, mouse; details: Avpr1a-Cre mice injected with the DREADD-Gq virus; single injection 1.5 mg/kg, i.p.
Source text: (A) Heat map for the expression of the 300 top genes at […], 7, 13 and 22 weeks of age (n=3). […] (D) Vgat and AVPR1A expression detected with smFISH in a coronal section of the CeA at bregma-1.34 mm. (E) Quantification of AVPR1A^CeA neurons. (F) AVPR1A-Cre::tdTomato reporter expression in a coronal section of the CeA at bregma-1.34 mm. (G-L) Chemogenetic activation of AVPR1A^CeA neurons. (G) Schematic of bilateral injections of AAV-DIO-DREADD-Gq-mCherry (closed circles) vs. AAV-DIO-mCherry controls (open circles) in the CeA of Avpr1a-Cre adult mice. (H) Expression of the viral mCherry reporter in the CeA. High-magnification image showing Avpr1a and cFos expression detected with smFISH 1 h after CNO injections in mice injected with control (lower panel) and DREADD-Gq-mCherry (upper panel) AAVs. (I-L) Effects of CNO injections on marble burying (I), time spent in the open arms of the EPM (J), time spent in the center of the open field (K), and distance traveled in the open field (L) in mice injected with control and DREADD-Gq AAVs (n=6-9). Data are presented as means+/−SEM in E.
We utilized a chemogenetic approach to overcome this technical issue that prevented direct comparisons of males and females. […]

central AVPR1A circuits = assay: Food intake following amygdala injection of AVP; type: in vivo, mouse
male rats = details: males; AVP delivered into the CeA (Hernandez et al., 2016; Hernandez-Perez et al., 2018); cited from earlier work
WT and Avpr1a-/- females = assay: Marble burying after bilateral intra-CeA AVP injection; type: in vivo, mouse; details: 1 ng AVP bilateral
Method: For cannulations, ophthalmic ointment and analgesics were administered (buprenorphine, 0.1 mg/kg or buprenorphine Ethiqa XR, 3.25 mg/kg, and carprofen, 5 mg/kg, subcutaneous). Two cannulas (Model C317GS, Plastics One) were placed by drilling holes at the following coordinates: +/−2.4 mm lateral, −1.4 mm anteroposterior and −4.6 mm ventral from Bregma. Implants were secured by dental cement and protected with a cap (Model C317DCS, Plastics One).
Marble burying: Standard cages were filled with fresh bedding to a depth of 2.5 in and 15 marbles were evenly spaced across the bedding. Animals were placed in the cage for 30 min and allowed to ambulate freely. At the end of the assay, the number of marbles buried was estimated visually. A marble was considered buried if at least ¾ of its surface was covered by the bedding.
Intra-amygdala AVP injections: Prior to marble burying, adult WT and Avpr1a^−/− females were bilaterally injected with 1 ng of AVP or 0.9% saline via in-dwelling cannulas using a Hamilton syringe (Hamilton 7635-01) connected to an injector (Model C317IS, Plastics One).

For `COc1ccc(S(=O)(=O)N2C(=O)[C@@](c3ccccc3OC)(N3C[C@H](O)C[C@H]3C(=O)N(C)C)c3cc(Cl)ccc32)c(OC)c1` [AVPR1B antagonist], the “marble burying (15 min)” value (WT mice; female mice exposed to CSIS) was “did not affect behavior in females or males” and the “marble burying (15 min)” value (WT mice; male mice exposed to CSIS) was “did not affect behavior in females or males”.
For `C[N+]1([O-])CCN(C2=Nc3cc(Cl)ccc3Nc3ccccc32)CC1` [CNO, clozapine-N-oxide], the “activation of AVPR1A^CeA neurons” value (AVPR1A^CeA neurons) was “acutely activated AVPR1A^CeA neurons”.
With `COc1ccc(S(=O)(=O)N2c3ccc(Cl)cc3[C@](O)(c3ccccc3Cl)[C@@H]2C(=O)N2CCC[C@H]2C(N)=O)cc1OC` [SR49059] the marble burying (WT mice; female WT mice exposed to >7 weeks CSIS starting at 5 or 8 weeks of age) was “had no effect”, the marble burying (WT mice; male WT mice exposed to >7 weeks CSIS starting at 5 or 8 weeks of age) was “had no effect” and the “food intake: blockade of the anorexigenic effects of AVP” value (central AVPR1A circuits; AVP (0.3 ng) injected in the amygdala, peripheral injection of antagonist (Manning compound; SR49059 2 mg/kg)) was “does not restore food intake”.
In the case of “AVP: AVP (vasopressin), the AVPR1A ligand, injected into the amygdala/CeA (CYFQNCPRG-NH2; disulfide 1-6; UniProt P01185 20-28, looked up)”, the anxiety-related behaviors (male rats) is listed as “can induce anxiety-like behaviors in males; also recorded: increase anxiety-related behaviors in males; also recorded: elicited anxiety-related behaviors”, the “marble burying / anxiety behavior” value (WT and Avpr1a-/- females; global knockout Avpr1a-/- females) is listed as “had no effect” and the “marble burying / anxiety behavior” value (WT and Avpr1a-/- females; group housed WT females) is listed as “trigger anxiety behavior in WT females; also recorded: increased marble burying”. The “effect on food intake” value (central AVPR1A circuits; AVP 0.3 ng injected in the amygdala) was “anorexigenic effects”.
With “d(CH2)5Tyr(Me)-[Orn8]-vasotocin [OXR antagonist]” the “marble burying (15 min)” value (WT mice; female mice exposed to CSIS) was “did not affect behavior in females or males” and the “marble burying (15 min)” value (WT mice; male mice exposed to CSIS) was “did not affect behavior in females or males”.
